Results on six molecules are retold here after ChEMBL document CHEMBL1833851, “Design, synthesis and X-ray crystallographic study of new nonsecosteroidal vitamin D receptor ligands” (Bioorg Med Chem Lett, 2011).

The structures appear in SMILES notation.

In this assay the target is T1, Vitamin D3 receptor (Homo sapiens, UniProt P11473).
T1 sequence (P11473 whole entry): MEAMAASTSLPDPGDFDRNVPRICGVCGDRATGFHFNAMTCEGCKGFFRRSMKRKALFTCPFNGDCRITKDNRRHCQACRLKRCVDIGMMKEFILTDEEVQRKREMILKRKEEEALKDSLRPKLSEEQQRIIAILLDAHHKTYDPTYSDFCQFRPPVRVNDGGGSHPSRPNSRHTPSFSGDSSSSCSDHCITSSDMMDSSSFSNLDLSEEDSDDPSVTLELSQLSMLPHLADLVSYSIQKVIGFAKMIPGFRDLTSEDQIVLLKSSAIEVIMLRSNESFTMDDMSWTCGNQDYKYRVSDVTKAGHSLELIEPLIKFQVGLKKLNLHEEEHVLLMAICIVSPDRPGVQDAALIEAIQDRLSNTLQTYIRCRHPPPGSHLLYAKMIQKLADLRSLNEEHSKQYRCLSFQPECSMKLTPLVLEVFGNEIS
The assay is described as follows: Activity at human VDR expressed in human HOS cells transfected with pGL3-hOc, pCDNA-hVDR and phRL-TK assessed as assessed as transcriptional activation measured 24 hrs post […] by luciferase reporter gene assay. In kind it is cell-based. A general note: Reporter assays use an easily measured gene product as a stand-in for the process of interest.
The term EC50 denotes the concentration at which the effect is half-maximal. Consider `CCC(CC)(c1ccc(OC[C@H](O)C(C)(C)C)c(C)c1)c1ccc(O[C@@H](CO)[C@@H](O)CO)c(C)c1`, for which the EC50 was determined as 0.92 nM.
Next, `CCC(CC)(c1ccc(OC[C@H](O)C(C)(C)C)c(C)c1)c1ccc(O[C@H](CO)CCO)c(C)c1`: 1.29 nM.
`CCC(CC)(c1ccc(OC[C@H](O)C(C)(C)C)c(C)c1)c1ccc(O[C@@H](CO)CCO)c(C)c1`: the concentration giving a half-maximal response (EC50) was 0.06 nM.
For `CCC(CC)(c1ccc(OC[C@H](O)C(C)(C)C)c(C)c1)c1ccc(O[C@H](CO)[C@H](O)CO)c(C)c1`, the EC50 is 1.25 nM.
`CCC(CC)(c1ccc(OCC(CO)CO)c(C)c1)c1ccc(OC[C@H](O)C(C)(C)C)c(C)c1`: the EC50 was 1.11 nM.
On to `CCC(CC)(c1ccc(OC[C@H](O)C(C)(C)C)c(C)c1)c1ccc(OC(CCO)CCO)c(C)c1`, for which the EC50 stood at 19.4 nM.
